Data set [1] addresses T1, PERK (Homo sapiens, UniProt Q9NZJ5).
T1 construct: endogenous in cells; host or cells: HEK293
T1 sequence (Q9NZJ5 30-1116): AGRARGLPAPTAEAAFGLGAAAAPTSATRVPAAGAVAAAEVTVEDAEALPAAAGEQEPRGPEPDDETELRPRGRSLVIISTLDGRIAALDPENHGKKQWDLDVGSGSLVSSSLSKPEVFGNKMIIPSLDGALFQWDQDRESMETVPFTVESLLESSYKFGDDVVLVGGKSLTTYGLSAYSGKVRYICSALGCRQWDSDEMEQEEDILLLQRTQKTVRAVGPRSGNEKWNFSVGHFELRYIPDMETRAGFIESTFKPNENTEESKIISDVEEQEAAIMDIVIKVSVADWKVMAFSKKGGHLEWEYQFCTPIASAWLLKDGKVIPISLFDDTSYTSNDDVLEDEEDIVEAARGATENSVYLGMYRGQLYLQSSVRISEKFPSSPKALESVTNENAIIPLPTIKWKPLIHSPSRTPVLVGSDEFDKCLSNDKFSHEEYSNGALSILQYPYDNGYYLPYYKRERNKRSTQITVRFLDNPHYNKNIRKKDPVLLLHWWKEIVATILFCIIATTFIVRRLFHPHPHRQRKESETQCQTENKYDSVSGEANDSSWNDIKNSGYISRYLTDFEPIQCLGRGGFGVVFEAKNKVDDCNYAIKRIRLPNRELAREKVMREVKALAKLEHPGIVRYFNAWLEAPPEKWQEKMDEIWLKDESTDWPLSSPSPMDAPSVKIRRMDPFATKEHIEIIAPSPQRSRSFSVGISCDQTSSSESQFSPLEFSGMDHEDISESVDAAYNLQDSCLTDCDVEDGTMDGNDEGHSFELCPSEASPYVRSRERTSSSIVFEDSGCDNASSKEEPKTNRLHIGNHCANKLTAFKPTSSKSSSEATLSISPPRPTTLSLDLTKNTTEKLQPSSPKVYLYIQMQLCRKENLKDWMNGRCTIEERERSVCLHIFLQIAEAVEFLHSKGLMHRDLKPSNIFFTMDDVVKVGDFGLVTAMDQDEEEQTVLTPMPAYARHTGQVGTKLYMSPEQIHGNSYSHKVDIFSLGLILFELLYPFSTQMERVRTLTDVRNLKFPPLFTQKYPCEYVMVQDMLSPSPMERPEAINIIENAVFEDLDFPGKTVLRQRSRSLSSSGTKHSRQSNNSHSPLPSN
Description: PERK activation: eIF2α phosphorylation relative to total eIF2α in HEK293 cells (Western blot). In kind it is cell-based. The note with it: for increase in eIF2α phosphorylation relative to total eIF2α: 24 hours. Here is the method:
FIG. 3A presents comparative bar graphs showing the effect of treatment with MK-28 or GLB7 (5 μM, 10 μM or 20 μM, as indicated), on the levels of eIF2α-phosphorylation (eIF2α-P) relatively to total eIF2α (eIF2α) in lysed HEK293 cells. Treatment with MK-28 began 24 hours before lysis. Data was obtained from quantification of Western blots (FIG. 3B), and immunoblotting was performed with anti-eIF2α-P or anti-total eIF2α antibodies.
For this purpose, HEK293 cells were untreated or treated with 5, 10 or 20 μM GLB7 or MK-28. After 24 hours, the cells were lysed and the phosphorylated eIF2α levels were measured relatively to the total eIF2α (a substrate of PERK).

A short description of data set [2]: Lipophilicity (logD7.4). The class given is physicochemical. Here is the method:
(§1) The solubility and lipophilicity of GLB7 and GLB11, two exemplary compounds according to some embodiments of the present invention, were measured compared to the PERK activator MK-28.

A short description of data set [3]: Solubility. The class given is physicochemical. The note with it: for solubility compared to MK-28 (fold higher): relative to MK-28. How it is done: as §1
Data set [4] deals with STHdhQ111/111 cells. The data set is described as follows: ER stress (tunicamycin)-induced apoptosis in STHdhQ111/111 cells. In kind it is cell-based, murine. The note with it: 10 μM compound, tunicamycin 48 hours, read from FIG. 2. Here is the method:
FIG. 2 presents comparative plots showing the apoptosis rate of STHdh^Q111/111 cells as a function of concentration of the exemplary compounds GLB11 and GLC19, following incubation with tunicamycin for 48 hours), as described for FIG. 1. P values *<0.05, **<0.01, ***<0.001. The asterisks indicate the significance compared to untreated cells.
Cell culture and transfections: Mouse embryonic fibroblasts (MEF) cells were grown as described in the art. Murine striatal cell line expressing full-length polyQ-expanded Htt (STHdhQ111/111) cells were grown as described in Leitman et al. [PLOS One 2014, 9 (3): e90803]. HEK 293 and VERO cells were grown in DMEM supplemented with 10% bovine calf serum at 37° C. under 5% CO2.
Apoptosis: Apoptosis was measured by cell cycle progression using propidium iodide (PI), considering the fraction beneath G0/G1.
Statistical analysis: Generally, the results are expressed as mean±standard deviation of 3 independent experiments. Apoptosis in the presence of tunicamycin and in the absence of other compounds was normalized to 100 to allow comparison between experiments. Significance by Two-tailed Student's t-test.
In order to assess the effect of the exemplary compounds on apoptosis, similar assays were performed in mouse embryonic fibroblasts (MEF; FIG. 1) and in STHdhQ111/111 cells (FIG. 2).

≈ marks a conversion by molar mass, not a printed value.

On to `Oc1ccc(C=NNc2nc(-c3ccccc3)cc(-c3ccccc3)n2)cc1O` (racemic) [GLB7, 4-((2-(4,6-diphenylpyrimidin-2-yl)hydrazono)methyl)benzene-1,2-diol], for which the “increase in eIF2α phosphorylation relative to total eIF2α” value in data set [1] (5 μM) is roughly 70%; in data set [1] (10 μM), 50%; in data set [1] (20 μM), 65%. In addition, in data set [1] (lowest examined dose of 5 μM), the “PERK activation compared to MK-28” value was “higher levels of PERK activation”. Moreover, in data set [2] (relative to MK-28), the “lipophilicity compared to MK-28” value is “decreased”. Besides, the solubility in data set [3] was determined as 16 µM (≈ 6.12 µg/mL). Also, the “solubility compared to MK-28 (fold higher)” value in data set [3] is greater than 10 fold.

As to `CN(/N=C/c1ccc(C(F)(F)F)cc1)c1nc(-c2ccccc2)cc(-c2ccccc2)n1` [GLC19, (E)-2-(1-methyl-2-(4-(trifluoromethyl)benzylidene) hydrazinyl)-4,6-diphenyl pyrimidine], the reduction of apoptosis result in data set [4] was “about 20%”.

Regarding `CN(NCc1ccc(O)c(O)c1)c1nc(-c2ccccc2)cc(-c2ccccc2)n1` [GLB11], in data set [2] (pH 7.4), the logD was determined as 4.8. For the same compound, in data set [3], the solubility worked out at 6 µM (≈ 2.39 µg/mL) and the “solubility compared to MK-28 (fold higher)” value is greater than 4 fold. The reduction of apoptosis entry in data set [4] is “about 20%”.

The values above are taken from patent US20250214982A1, “COMPOUNDS USABLE AS MODULATORS OF PERK ACTIVITY” (Ramot at Tel-Aviv University Ltd., priority 2022, published 2025).
